This note sets out measurements from patent US6756359B2, “C12 modified erythromycin macrolides and ketolides having antibacterial activity” (Chiron Corporation, priority 2001, dated 2004).

Test in all cases: Antibacterial activity in vitro, MIC by broth microdilution
Experiment [1] concerns S. pneumoniae Stpn_Mef 5654. The class given is cell-based, Streptococcus pneumoniae. To be noted: Table 3, Strain ID J: S. pneumoniae Stpn_Mef 5654; unit assumed. An outline of the steps: (§1)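 Broth microdilution per NCCLS in cation-adjusted Mueller-Hinton broth, final inoculum 3×10^5–7×10^5 CFU/mL, 2-fold serial drug dilutions, 35° C. for 18-24 hours. S. pneumoniae grown in CAMHB with 2-5% lysed horse blood under 5-10% CO2. MIC is the lowest concentration preventing visible growth.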

The test system of experiment [2] is S. pneumoniae Stpn_Erm 6849. Type of experiment: cell-based, Streptococcus pneumoniae. To be noted: Table 3, Strain ID H: S. pneumoniae Stpn_Erm 6849; unit assumed. An outline of the steps: as §1
Experiment [3] has as its system S. pneumoniae Stpn_280-962 Pen S. The class given is cell-based, Streptococcus pneumoniae. To be noted: Table 3, Strain ID G: S. pneumoniae Stpn_280-962 Pen S. An outline of the steps:
as §1

Experiment [4] relates to S. pneumoniae Stpn_Mef S 3427. The class given is cell-based, Streptococcus pneumoniae. To be noted: Table 3, Strain ID K: S. pneumoniae Stpn_Mef S 3427. An outline of the steps: as §1
Experiment [5] relates to S. pneumoniae Stpn_297-749 Pen R. The class given is cell-based, Streptococcus pneumoniae. To be noted: Table 3, Strain ID F: S. pneumoniae Stpn_297-749 Pen R. An outline of the steps:
as §1

In a further experiment the test system is S. pneumoniae Stpn_49619. The class given is cell-based, Streptococcus pneumoniae. To be noted: Table 3, Strain ID E: S. pneumoniae Stpn_49619. An outline of the steps:
as §1

Experiment [6] relates to S. pneumoniae Stpn_Erm S 4297. The class given is cell-based, Streptococcus pneumoniae. To be noted: Table 3, Strain ID I: S. pneumoniae Stpn_Erm S 4297. An outline of the steps: as §1
The next experiment concerns H. influenzae Hain_49247. The class given is cell-based, Haemophilus influenzae. To be noted: Table 3, Strain ID L: H. influenzae Hain_49247; unit assumed. An outline of the steps: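 Visible-growth inhibition defined the MIC, obtained by NCCLS broth microdilution at 35° C. over 18-24 hours with a final inoculum of 3×10^5–7×10^5 CFU/mL.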
The test system of another experiment is E. coli Esco_25922. Type of experiment: cell-based. To be noted: Table 3, Strain ID M: E. coli Esco_25922; unit assumed. An outline of the steps:
as §1

For experiment [7], the system named is S. epidermidis Step_14990. The class given is cell-based. To be noted: Table 3, Strain ID A: S. epidermidis Step_14990; unit assumed. An outline of the steps:
as §1

In a further experiment the test system is S. pyogenes Stpy_8668. Type of experiment: cell-based. To be noted: Table 3, Strain ID D: S. pyogenes Stpy_8668. An outline of the steps: as §1
In experiment [8] the test system is S. epidermidis Step_f50654 Pen S. The class given is cell-based. To be noted: Table 3, Strain ID B: S. epidermidis Step_f50654 Pen S; unit assumed. An outline of the steps: as §1
For a further experiment, the system named is E. faecalis Enfa_29212. Type of experiment: cell-based. To be noted: Table 3, Strain ID C: E. faecalis Enfa_29212. An outline of the steps:
as §1

≈ marks a conversion by molar mass, not a printed value.

As for `CC[C@H]1OC(=O)[C@H](C)C(=O)[C@H](C)[C@@H](O[C@@H]2O[C@H](C)C[C@H](N(C)C)[C@H]2O)[C@@](C)(OC)C[C@@H](C)C(=O)[C@H](C)[C@@H]2[C@@H]1OC(=O)N2CCCCn1cnc(-c2ccccc2)c1` [Compound 6221], the MIC in experiment [1] was 0.4 µg/mL (≈ 0.502 µM); in [2] it was 0.1 µg/mL (≈ 0.125 µM); in experiment [3], “≦0.05”; in experiment [4], “≦0.05”; in [5] it was “≦0.05”; against S. pneumoniae Stpn_49619 it was “≦0.05”. The MIC entry in [6] was “≦0.05”; with H. influenzae Hain_49247, 3.13 µg/mL (≈ 3.93 µM); against E. coli Esco_25922, 25 µg/mL (≈ 31.4 µM); in [7], 0.1 µg/mL (≈ 0.125 µM); in the experiment on S. pyogenes Stpy_8668, “≦0.05”; in [8], 0.1 µg/mL (≈ 0.125 µM). In addition, the MIC entry against E. faecalis Enfa_29212 is “≦0.05”.

Consider `CC[C@H]1OC(=O)[C@H](C)C(=O)[C@H](C)[C@@H](O[C@@H]2O[C@H](C)C[C@H](N(C)C)[C@H]2O)[C@@](C)(OC)C[C@@H](C)C2=NCCN3C(=O)O[C@H]1[C@H]3[C@H]2C` [Compound 6222], for which the MIC in [1] is 0.78 µg/mL (≈ 1.25 µM); in experiment [2] it was > 50 µg/mL; in [3] (unit assumed), 0.2 µg/mL (≈ 0.321 µM); in [4] (unit assumed) it was 0.4 µg/mL (≈ 0.641 µM); in [5] (unit assumed), 0.4 µg/mL (≈ 0.641 µM); with S. pneumoniae Stpn_49619 (unit assumed) it was 0.2 µg/mL (≈ 0.321 µM). Also, the MIC in experiment [6] (unit assumed) was > 50 µg/mL; in the experiment with H. influenzae Hain_49247, 25 µg/mL (≈ 40.1 µM); against E. coli Esco_25922, 50 µg/mL (≈ 80.2 µM); in experiment [7], 1.56 µg/mL (≈ 2.5 µM); in the experiment on S. pyogenes Stpy_8668 (unit assumed) it was 0.2 µg/mL (≈ 0.321 µM); in experiment [8], 1.56 µg/mL (≈ 2.5 µM). In the experiment with E. faecalis Enfa_29212 (unit assumed), this molecule returned an MIC of 0.4 µg/mL (≈ 0.641 µM).

On to `CC[C@H]1OC(=O)[C@H](C)C(=O)[C@H](C)[C@@H](O[C@@H]2O[C@H](C)C[C@H](N(C)C)[C@H]2O)[C@@](C)(OC)C[C@@H](C)C2=N[C@@H](C)CN3C(=O)O[C@H]1[C@H]3[C@H]2C` [Compound 6223], for which the MIC in experiment [1] is 0.78 µg/mL (≈ 1.22 µM); in [2], > 50 µg/mL; in [3] (unit assumed), 0.2 µg/mL (≈ 0.314 µM); in [4] (unit assumed) it was 0.4 µg/mL (≈ 0.627 µM); in [5] (unit assumed) it was 0.2 µg/mL (≈ 0.314 µM); with S. pneumoniae Stpn_49619 (unit assumed) it was 0.2 µg/mL (≈ 0.314 µM). Moreover, the MIC in [6] (unit assumed) is > 50 µg/mL; in the experiment with H. influenzae Hain_49247, > 50 µg/mL; against E. coli Esco_25922, 50 µg/mL (≈ 78.4 µM); in [7], 1.56 µg/mL (≈ 2.45 µM); with S. pyogenes Stpy_8668 (unit assumed) it was 0.2 µg/mL (≈ 0.314 µM); in experiment [8] it was 3.13 µg/mL (≈ 4.91 µM). Moreover, the MIC in the experiment on E. faecalis Enfa_29212 (unit assumed) came out at 0.78 µg/mL (≈ 1.22 µM).

In the case of `CC[C@H]1OC(=O)[C@H](C)C(=O)[C@H](C)[C@@H](O[C@@H]2O[C@H](C)C[C@H](N(C)C)[C@H]2O)[C@@](C)(OC)C[C@@H](C)C(=O)[C@H](C)[C@H]2N(CCCCn3cnc(-c4cccnc4)c3)C(=O)O[C@]12CC` [Compound 7280], the MIC in experiment [1] was 0.4 µg/mL (≈ 0.484 µM); in [2] it was 0.4 µg/mL (≈ 0.484 µM); in experiment [3], “≦0.05”; in experiment [4] (unit assumed), 0.1 µg/mL (≈ 0.121 µM); in experiment [5], “≦0.05”; in the experiment on S. pneumoniae Stpn_49619 it was “≦0.05”. The MIC result in experiment [6] was “≦0.05”; in the experiment on H. influenzae Hain_49247 it was 6.25 µg/mL (≈ 7.57 µM); against E. coli Esco_25922 it was 25 µg/mL (≈ 30.3 µM); in experiment [7], 0.2 µg/mL (≈ 0.242 µM); with S. pyogenes Stpy_8668, “≦0.05”; in experiment [8], 0.2 µg/mL (≈ 0.242 µM). Besides, the MIC with E. faecalis Enfa_29212 (unit assumed) is 0.1 µg/mL (≈ 0.121 µM).

Consider `CC[C@H]1OC(=O)[C@H](C)C(=O)[C@H](C)[C@@H](O[C@@H]2O[C@H](C)C[C@H](N(C)C)[C@H]2O)[C@@](C)(OC)C[C@@H](C)C(=O)[C@H](C)[C@H]2N(CCCCn3cnc(-c4ccccc4)c3)C(=O)O[C@]12CC` [Compound 7281], for which the MIC in experiment [1] was 0.4 µg/mL (≈ 0.485 µM); in experiment [2], 0.2 µg/mL (≈ 0.242 µM); in [3], “≦0.05”; in [4], “≦0.05”; in [5], “≦0.05”; in the experiment on S. pneumoniae Stpn_49619, “≦0.05”. In addition, the MIC result was “≦0.05” in experiment [6]; 3.13 µg/mL (≈ 3.79 µM) in the experiment with H. influenzae Hain_49247; 25 µg/mL (≈ 30.3 µM) with E. coli Esco_25922; 0.2 µg/mL (≈ 0.242 µM) in [7]; “≦0.05” with S. pyogenes Stpy_8668; 0.1 µg/mL (≈ 0.121 µM) in experiment [8]. The same molecule came in with an MIC with E. faecalis Enfa_29212 (unit assumed) of 0.1 µg/mL (≈ 0.121 µM).

Take `CC[C@H]1OC(=O)[C@H](C)C(=O)[C@H](C)[C@@H](O[C@@H]2O[C@H](C)C[C@H](N(C)C)[C@H]2O)[C@@](C)(OC)C[C@@H](C)C(=O)[C@H](C)[C@H]2N(CCCCn3cnc4ccccc43)C(=O)O[C@]12CC` [Compound 7282]: the MIC is 0.4 µg/mL (≈ 0.501 µM) in experiment [1]; 0.78 µg/mL (≈ 0.976 µM) in [2]; “≦0.05” in experiment [3]; 0.1 µg/mL (≈ 0.125 µM) in experiment [4] (unit assumed); “≦0.05” in [5]; “≦0.05” in the experiment on S. pneumoniae Stpn_49619. For the same molecule, the MIC in experiment [6] (unit assumed) was 0.2 µg/mL (≈ 0.25 µM); against H. influenzae Hain_49247, 3.13 µg/mL (≈ 3.92 µM); with E. coli Esco_25922, 12.5 µg/mL (≈ 15.6 µM); in [7], 0.4 µg/mL (≈ 0.501 µM); against S. pyogenes Stpy_8668, “≦0.05”; in experiment [8], 0.2 µg/mL (≈ 0.25 µM). The molecule also gave an MIC with E. faecalis Enfa_29212 (unit assumed) of 0.1 µg/mL (≈ 0.125 µM).

In the case of `CC[C@H]1OC(=O)[C@H](C)C(=O)[C@H](C)[C@@H](O[C@@H]2O[C@H](C)C[C@H](N(C)C)[C@H]2O)[C@@](C)(OC)C[C@@H](C)C(=O)[C@H](C)[C@H]2N(CCCCc3ccnc4ccccc34)C(=O)O[C@]12CC` [Compound 7283], the MIC is 0.4 µg/mL (≈ 0.494 µM) in experiment [1]; 0.4 µg/mL (≈ 0.494 µM) in experiment [2]; “≦0.05” in [3]; “≦0.05” in experiment [4]; “≦0.05” in experiment [5]; “≦0.05” in the experiment on S. pneumoniae Stpn_49619. The MIC in [6] (unit assumed) is 0.1 µg/mL (≈ 0.123 µM); against H. influenzae Hain_49247, 3.13 µg/mL (≈ 3.86 µM); against E. coli Esco_25922, 12.5 µg/mL (≈ 15.4 µM); in [7], 0.2 µg/mL (≈ 0.247 µM); against S. pyogenes Stpy_8668 it was “≦0.05”; in [8], 0.2 µg/mL (≈ 0.247 µM). This molecule also came in with an MIC in the experiment on E. faecalis Enfa_29212 (unit assumed) of 0.1 µg/mL (≈ 0.123 µM).
